Source: US9084546B2, “Co-electrodeposited hydrogel-conducting polymer electrodes for biomedical applications” (The Regents of the University of Michigan, priority 2005, dated 2015)

Columns and labels:
[1] = tested on: MCC (mouse primary cortical cultures); test: Cytotoxicity dose-response of EDOT monomer with PSS dopant (cell viability); assay type: cell-based; settings: MCC exposed to as much as 0.01 M EDOT, 0.02M PSS for as long as 72 h
Protocol: (§1) Materials and Methods: SH-SY5Y neuroblastoma-derived cells were maintained in Dulbecco's Modified-Eagle's Media (DMEM with glucose, with L-glutamine; Gibco/Invitrogen, Carlsbad, Calif.) supplemented with Penn-Strep mixed antibiotic solution (dilute 1:100 in cell media; Gibco/Invitrogen) and 10% fetal bovine serum (FBS; Gibco/Invitrogen). Mouse primary dissociated cortical cultures (MCC) were prepared from embryonic day 18-20 (E18-20) mice. […]
(§2) Cell Viability Assays: Cell viability was assessed using three assays; the Vybrant Live/Dead Assay (Molecular Probes), the MTT cell viability assay (Chemicon, Temecula, Calif.), and immunocytochemistry (ICC) for the apoptosis associated protease, activated caspase 3 (Cell Signaling Technologies, Beverly, Mass.). For Vybrant Live/Dead assay cell quantity, size, and type of nuclear staining intensity were assessed by fluorescence microscopy using 3 different dyes, Hoechst 33342 (labels all cell nuclei but brighter in nuclei of apoptotic cells), YoPro-3 (labels apoptotic cells) and propidium iodide (PI) (labels cells with compromised membrane; apoptotic & necrotic cells). […]

SY5Y cells = test: as above; assay type: cell-based; settings: SY5Y cells exposed to as much as 0.01 M EDOT, 0.02M PSS for as long as 72 h
Protocol: as §1, §2

c1scc2c1OCCO2 [EDOT, 3,4-ethylenedioxythiophene]
cell viability [1]: at least 75%
cell viability (SY5Y cells): at least 75%
